The target in experiment [1] is T1, PKB-PIF (Homo sapiens, UniProt P31751).
T1 construct: made in house
Put plainly: Measurement of PKB kinase inhibitory activity (IC50), 33P-ATP phosphocellulose filter assay. In kind it is biochemical. The following applies: 0.6 nM enzyme, 30 μM ATP, 25 μM AKTide-2T substrate, 20 minutes; read-out: IC50, concentration of test compound required to inhibit 50% of the PKB activity. How it is done:
The inhibition of protein kinase B (PKB) activity by compounds can be determined essentially as described by Andjelkovic et al. (Mol. Cell. Biol. 19, 5061-5072 (1999)) but using a fusion protein described as PKB-PIF and described in full by Yang et al (Nature Structural Biology 9, 940-944 (2002)). […] A final concentration of 0.6 nM enzyme is used in a buffer that includes 20 mM MOPS pH 7.2, 30 μM ATP/γ^33P-ATP and 25 μM substrate. Compounds are added in DMSO solution to a final DMSO concentration of 2.5%. The reaction is allowed to proceed for 20 minutes before addition of excess orthophosphoric acid to quench activity. The reaction mixture is transferred to a phosphocellulose filter plate where the peptide binds and the unused ATP is washed away. After washing, scintillant is added and the incorporated activity measured by scintillation counting.
The % inhibition of the PKB activity is calculated and plotted in order to determine the concentration of test compound required to inhibit 50% of the PKB activity (IC50).

Experiment [2] has as its target T2, PKA catalytic domain (Homo sapiens, UniProt P17612).
T2 construct: using the PKA catalytic domain from Upstate Biotechnology (#14-440); purchased Upstate Biotechnology 14-440
Put plainly: Measurement of PKA kinase inhibitory activity (IC50), 33P-ATP filter plate assay. The class given is biochemical. The following applies: 1 nM enzyme, 40 μM ATP, 20 minutes; read-out: IC50, concentration of test compound required to inhibit 50% of the PKA activity. How it is done:
Compounds of the invention can be tested for PK inhibitory activity using the PKA catalytic domain from Upstate Biotechnology (#14-440) and the 9 residue PKA specific peptide ([…]), also from Upstate Biotechnology (#12-257), as the substrate. A final concentration of 1 nM enzyme is used in a buffer that includes 20 mM MOPS pH 7.2, 40 μM ATP/γ^33P-ATP and […] substrate. Compounds are added in dimethylsulphoxide (DMSO) solution to a final DMSO concentration of 2.5%. The reaction is allowed to proceed for 20 minutes before addition of excess orthophosphoric acid to quench activity. Unincorporated γ^33P-ATP is then separated from phosphorylated proteins on a Millipore MAPH filter plate. The plates are washed, scintillant is added and the plates are then subjected to counting on a Packard Topcount.
The % inhibition of the PKA activity is calculated and plotted in order to determine the concentration of test compound required to inhibit 50% of the PKA activity (IC50).

The text below walks through data of patent US20100016340A1, “PHARMACEUTICAL COMPOUNDS” (Astex Therapeutics Limited, priority 2006, published 2010).

Structures can show the parent of a compound that is named as a salt.

T1 sequence (P31751 with tags, fused parts or gaps limits assumed): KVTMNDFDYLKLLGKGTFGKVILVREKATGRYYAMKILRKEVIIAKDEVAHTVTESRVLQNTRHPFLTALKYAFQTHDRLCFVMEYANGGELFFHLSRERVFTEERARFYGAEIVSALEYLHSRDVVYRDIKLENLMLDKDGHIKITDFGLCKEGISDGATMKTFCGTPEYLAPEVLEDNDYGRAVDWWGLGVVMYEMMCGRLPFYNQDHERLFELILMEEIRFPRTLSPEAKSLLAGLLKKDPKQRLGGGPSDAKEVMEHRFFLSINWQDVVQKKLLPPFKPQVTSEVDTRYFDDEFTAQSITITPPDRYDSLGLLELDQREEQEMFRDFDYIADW

As for `NC1(C(=O)NCc2ccc(Cl)c(-c3ccccc3)c2)CCN(c2ncnc3[nH]ccc23)CC1` [Example 2, 4-Amino-1-(7H-pyrrolo[2,3-d]pyrimidin-4-yl)-piperidine-4-carboxylic acid (6-chloro-biphenyl-3-ylmethyl)-amide hydrochloride], the IC50 in experiment [1] was less than 1000 nM. As for `NCC1(c2cccc(-c3ccccc3)c2)CCN(c2ncnc3[nH]ccc23)CC1` [Example 4, C-[4-Biphenyl-3-yl-1-(7H-pyrrolo[2,3-d]pyrimidin-4-yl)piperidin-4-yl]methylamine], the results for the IC50 in experiment [2] and in experiment [1] were less than 10000 nM and less than 1000 nM, respectively. For the compound `COc1ccc(-c2cccc(C3(CN)CCN(c4ncnc5[nH]ccc45)CC3)c2)cc1` [Example 5, C-[4-(4′-Methoxybiphenyl-3-yl)-1-(7H-pyrrolo[2,3-d]pyrimidin-4-yl)piperidin-4-yl]methylamine], the IC50 in experiment [1] was less than 1000 nM.

For `NC1(C(=O)NCc2ccc(Cl)cc2)CCN(c2ncnc3[nH]c(=O)[nH]c23)CC1` [Example 6, 4-Amino-1-(8-oxo-8,9-dihydro-7H-purin-6-yl)-piperidine-4-carboxylic acid 4-chloro-benzylamide], the IC50 in experiment [2] was less than 10000 nM. Take `NC1(C(=O)NCc2ccc(Cl)cc2F)CCN(c2ncnc3[nH]c(=O)[nH]c23)CC1` [Example 7, 4-Amino-1-(8-oxo-8,9-dihydro-7H-purin-6-yl)-piperidine-4-carboxylic acid 4-chloro-2-fluoro-benzylamide]: the values for the IC50 in experiment [2] and in experiment [1] were less than 10000 nM and less than 1000 nM, respectively. Turning to `NCC1(c2ccc(OC(F)(F)F)cc2)CCN(c2ncnc3[nH]c(=O)[nH]c23)CC1` [Example 10, 6-[4-Aminomethyl-4-(4-trifluoromethoxyphenyl)piperidin-1-yl]-7,9-dihydropurin-8-one], the IC50 in experiment [1] was less than 1000 nM. Turning to `NC1(Cc2ccc(Cl)cc2)CCN(c2ncnc3[nH]c(=O)[nH]c23)CC1` [Example 11, 6-[4-Amino-4-(4-chlorobenzyl)piperidin-1-yl]-7,9-dihydropurin-8-one], the IC50 in experiment [1] was less than 1000 nM. For the compound `NC1(c2ccc(Cl)cc2)CCN(c2ncnc3[nH]c(=O)[nH]c23)CC1` [Example 12, 6-[4-Amino-4-(4-chlorophenyl)piperidin-1-yl]-7,9-dihydropurin-8-one], the IC50 in experiment [2] was less than 10000 nM; in experiment [1] it was less than 1000 nM. For the compound `CC(C)(C)c1ccc(CC2(N)CCN(c3ncnc4[nH]ncc34)CC2)cc1` [Example 13, 4-(4-tert-Butyl-benzyl)-1-(1H-pyrazolo[3,4-d]pyrimidin-4-yl)-piperidin-4-ylamine], the IC50 in experiment [1] is less than 1000 nM.
